Results as given in article PMC7551771, “In-Depth In Silico Search for Cuttlefish (Sepia officinalis) Antimicrobial Peptides Following Bacterial Challenge of Haemocytes” (Marine Drugs, 2020).
Like-named read-outs stand apart in the source and are kept apart here. No end group written: not given here.

Columns and labels:
human red blood cells = format: cell-based
Protocol: The haemolytic activity of the synthetic peptides was determined in triplicate on human red blood cells (RBCs) as described by Duval and collaborators. Briefly, RBCs were pelleted and washed three times in phosphate-buffered saline (PBS). Then, they were resuspended in PBS to obtain a 1% solution of RBC. Ten microliters of peptide solution were incubated with 90 µL of the RBC 1% solution for 1 h at 37 °C. The peptides were diluted in PBS and tested at different concentrations: 5 µM, 20 µM, 50 µM and 100 µM. Haemolytic activity was determined by measuring the OD at 415 nm. Zero haemolysis and total (100%) haemolysis were determined with PBS and 1% Triton X-100 solutions, respectively.

[1] = system: V. splendidus (CIP 107715); assay: microbe, parasite or virus in culture; format: cell-based, Vibrio splendidus
Protocol: (§1) The minimal growth inhibitory concentrations (MICs) of synthetic peptides (Genecust) were evaluated on Vibrio alginolyticus (CIP 109819), V. splendidus (CIP 107715), V. aestuerianus (CIP 102971), V. anguillarum (CIP 64.14), V. parahaemolyticus (CIP 73.30), Halomonas aquamarina (CIP 105454T), Escherichia coli (CIP 54.8T), Aeromonas salmonicida (CIP 103209T), Enteroccocus faecalis (CIP 76.117) and Lactococcus garvieae (CIP 104369) obtained from the “Collection de l’Institut Pasteur”. Bacteria were cultured in adapted media: Homemade marine broth (HMB, sea salts 20 g/L, peptone 5 g/L, yeast extract 3 g/L) for Vibrio species and H. aquamarina; Luria-Bertani (peptone 10 g/L, yeast extract 5 g/L, NaCl 10 g/L) for E. faecalis and E. coli; Trypticasein Soy Broth (TSB, Conda, 40 g/L) for A. salmonicida, and Brain Heart Infusion (BHI) (Conda, 37 g/L) for L. garvieae. MICs were determined in triplicate by liquid growth inhibition assays adapted from Hetru and Bulet. Briefly, 10 µL of peptide solution were incubated in Bioscreen honeycomb-well plates with 90 µl of bacterial suspension at a starting OD600 of 0.001 in BHI for L. garvieae, poor broth (peptone 10 g/L, NaCl 5 g/L) for E. faecalis and E. coli, TSB for A. salmonicida, HMB for H. aquamarina and saline poor broth (peptone 10 g/L, NaCl 15 g/L) for Vibrio species. Bacterial growth was monitored for 16 h by measuring OD600 values every 5 min (Bioscreen C, Labsystem, Finland). The peptides were tested alone at concentrations of 5 µM, 10 µM, 20 µM and 50 µM. For synergy, peptides pairs were tested at concentrations of 5 µM, 10 µM and 20 µM. Oxytetracycline at 5 µM and 10 µM was used as a positive control, and water was used as a blank. MICs were expressed in µM as an [a]–[b] concentration interval where [a] was the last concentration with bacterial growth and [b] was the first concentration with 100% bacterial growth inhibition. MBCs (minimal bactericidal concentrations) were expressed in µM as an [a]–[b] concentration interval where [a] was the last concentration with bacterial growth and [b] was the first concentration that killed 100% of the bacteria.

[2] = system: V. parahaemolyticus (CIP 73.30); assay: microbe, parasite or virus in culture; format: cell-based, Vibrio parahaemolyticus; conditions: for MIC: read-out: MIC Vibrio parahaemo-lyticus
Protocol: as §1

[3] = system: Vibrio alginolyticus (CIP 109819); assay: microbe, parasite or virus in culture; format: cell-based
Protocol: as §1

[4] = system: Escherichia coli (CIP 54.8T); assay: microbe, parasite or virus in culture; format: cell-based
Protocol: as §1

[5] = system: V. aestuerianus (CIP 102971); assay: microbe, parasite or virus in culture; format: cell-based, Vibrio aestueranius; conditions: for MBC: read-out: MBC Vibrio aestueranius
Protocol: as §1

[6] = system: V. anguillarum (CIP 64.14); assay: microbe, parasite or virus in culture; format: cell-based, Vibrio anguillarum
Protocol: as §1

[7] = system: Lactococcus garvieae (CIP 104369); assay: Liquid growth inhibition assay (MIC/MBC); format: cell-based; conditions: CIP104369, BHI, triplicate, interval [a]-[b], '-' = not active
Protocol: as §1

[8] = system: Aeromonas salmonicida (CIP 103209T); assay: Liquid growth inhibition assay (MIC/MBC); format: cell-based; conditions: TSB, triplicate, interval [a]-[b], '-' = not active
Protocol: as §1

[9] = system: Enteroccocus faecalis (CIP 76.117); assay: Liquid growth inhibition assay (MIC/MBC); format: cell-based; conditions: Enterococcus faecalis, CIP76, poor broth, triplicate, interval [a]-[b], '-' = not active
Protocol: as §1

[10] = system: Halomonas aquamarina (CIP 105454T); assay: Liquid growth inhibition assay (MIC/MBC); format: cell-based; conditions: Vreelandella aquamarina; HMB, starting OD600 0.001, 16 h, triplicate; interval [a]-[b]; '-' = not active
Protocol: as §1

## ASSFLTPRLSSLGKRSWAV [AV19]
Human red blood cells
  concentrations at which haemolytic: 50 to 100 µM
[1]; CIP 107715, 16 h
  MBC Vibrio splendidus: 10 to 20 µM
  MIC Vibrio splendidus: 10 to 20 µM
[2]; CIP 73, 16 h
  MBC Vibrio parahaemo-lyticus: 20 to 50 µM
  MIC Vibrio parahaemo-lyticus: 10 to 20 µM

## GFCNFMHLKPISRELRRELYGRTRRRRK [GK28]
[3]; CIP 109819, 16 h
  MIC: ≤5 µM
[3]; saline poor broth, triplicate, interval [a]-[b], b = first concentration that killed 100% of the bacteria, '-' = not active
  MBC Vibrio alginolyticus: 20 to 50 µM
[4]; CIP 54, 16 h
  MBC Escherichia coli: 20 to 50 µM
  MIC: ≤5 µM
[1]; CIP 107715, 16 h, read-out: MBC Vibrio splendidus
  MBC: ≤5 µM
[1]; CIP 107715, 16 h, read-out: MIC Vibrio splendidus
  MIC: ≤5 µM
[5]; CIP 102971, 16 h
  MIC Vibrio aestueranius: 10 to 20 µM
  MBC: >50 µM
[2]; CIP 73, 16 h
  MBC Vibrio parahaemo-lyticus: 10 to 20 µM
  MIC: ≤5 µM
[6]; CIP 64, 16 h
  MBC Vibrio anguillarum: 20 to 50 µM
  MIC Vibrio anguillarum: 10 to 20 µM

## CN(C)[C@@H]1C(O)=C(C(N)=O)C(=O)[C@@]2(O)C(O)=C3C(=O)c4c(O)cccc4[C@@](C)(O)[C@H]3[C@H](O)[C@@H]12 [Ox, Oxytetracycline]
[7]; starting OD600 0.001, 16 h
  MIC: ≤ 5 µM
[7]
  MBC: > 10 µM
[8]; starting OD600 0.001, 16 h
  MIC: ≤ 5 µM
[8]
  MBC: ≤ 5 µM
[9]; starting OD600 0.001, 16 h
  MIC: ≤ 5 µM
[9]
  MBC: 5 to 10 µM
[10]
  MIC: > 10 µM
[3]; Vibrio alginolyticus, CIP109819, saline poor broth, starting OD600 0.001, growth monitored 16 h, triplicate, interval [a]-[b], b = first concentration with 100% growth inhibition, peptides 5-50 µM, pairs 5-20 µM, oxytetracycline 5 and 10 µM, '-' = not active
  MIC: ≤ 5 µM
[3]; Vibrio alginolyticus, CIP109819, saline poor broth, triplicate, interval [a]-[b], b = first concentration that killed 100% of the bacteria, '-' = not active
  MBC: ≤ 5 µM
[3]; saline poor broth, starting OD600 0.001, growth monitored 16 h, triplicate, interval [a]-[b], b = first concentration with 100% growth inhibition, peptides 5-50 µM, pairs 5-20 µM, oxytetracycline 5 and 10 µM, '-' = not active
  MIC: ≤5 µM
[4]; Escherichia coli, CIP54, poor broth, starting OD600 0.001, 16 h, triplicate, interval [a]-[b], '-' = not active
  MIC: ≤ 5 µM
[4]; Escherichia coli, CIP54, poor broth, triplicate, interval [a]-[b], '-' = not active
  MBC: ≤ 5 µM
[1]; Vibrio splendidus, CIP107715, saline poor broth, starting OD600 0.001, 16 h, triplicate, interval [a]-[b], '-' = not active
  MIC: ≤ 5 µM
[1]; Vibrio splendidus, CIP107715, saline poor broth, triplicate, interval [a]-[b], '-' = not active
  MBC: ≤ 5 µM
[1]; saline poor broth, starting OD600 0.001, 16 h, triplicate, interval [a]-[b], '-' = not active, read-out: MIC Vibrio splendidus
  MIC: ≤5 µM
[5]; Vibrio, CIP102971, saline poor broth, starting OD600 0.001, 16 h, triplicate, interval [a]-[b], '-' = not active, read-out: MIC Vibrio aestueranius
  MIC: ≤ 5 µM
[5]; Vibrio, CIP102971, saline poor broth, triplicate, interval [a]-[b], '-' = not active
  MBC: ≤ 5 µM
[2]; Vibrio parahaemolyticus, CIP73, saline poor broth, starting OD600 0.001, 16 h, triplicate, interval [a]-[b], '-' = not active
  MIC: ≤ 5 µM
[2]; Vibrio parahaemolyticus, CIP73, saline poor broth, triplicate, interval [a]-[b], '-' = not active, read-out: MBC Vibrio parahaemo-lyticus
  MBC: ≤ 5 µM
[2]; saline poor broth, starting OD600 0.001, 16 h, triplicate, interval [a]-[b], '-' = not active
  MIC: ≤5 µM
[6]; Vibrio anguillarum, CIP64, saline poor broth, starting OD600 0.001, 16 h, triplicate, interval [a]-[b], '-' = not active
  MIC: ≤ 5 µM
[6]; Vibrio anguillarum, CIP64, saline poor broth, triplicate, interval [a]-[b], '-' = not active
  MBC: ≤ 5 µM

## NYWLLVLRRLLITKKVMWF [NF19]
Human red blood cells
  concentrations at which haemolytic: 50 to 100 µM
[1]; CIP 107715, 16 h
  MBC Vibrio splendidus: 10 to 20 µM
  MIC Vibrio splendidus: 5 to 10 µM
